Assay [1] concerns LTD4-induced hypertussive response in the Guinea Pig. Put plainly: LTD4-Induced Hypertussive Model. Type of assay: in vivo. The following applies: oral 30 mg/kg b.i.d.; LTD4 inhalation 10 ug/ml for 1 minute; 72 hours after exposure. The method, then:
The effects of the compound are then assessed on the hypertussive response that occurs 72 hours post aerosol exposure to antigen or LTD4 exposure. Treatment of the animals occurs with the drug prior and/or after antigen or LTD4 challenge, but not on the day of citric acid challenge. Similarly, inhalation of LTD4 (10 ug/ml for 1 minute) increased cough incidence and airway esoinophiles 72 hours after exposure. Oral treatment with Compound I (30 mg/kg, b.i.d.), blocked the LTD4-induced esoinophilia, and normalized the cough response, as shown in FIG. 5 herein.

The subject of assay [2] is Antigen-Induced Hypertussive Activity to Citric Acid in Guinea Pigs. Kind of assay: Antigen-Induced Hypertussive Model. It counts as in vivo, guinea pig. The settings on record: sensitized guinea pigs exposed to inhaled ovalbumin. The method, then:
The effects of the compound are then assessed on the hypertussive response that occurs 72 hours post aerosol exposure to antigen or LTD4 exposure. Treatment of the animals occurs with the drug prior and/or after antigen or LTD4 challenge, but not on the day of citric acid challenge. Inhalation of citric acid (CA; 0.4% for 1 minute) induced 11 to 15 coughs during the exposure and 12-minute monitoring period in conscious guinea pigs.

The subject of assay [3] is Citric Acid-Induced Cough in Guinea Pigs. Put plainly: Citric Acid Induced Cough Model (direct antitussive activity). The following applies: conscious guinea pigs, inhaled citric acid (0.4% for 1 minute) cough challenge; FIG. 4. It counts as in vivo, guinea pig. The method, then: The directed antitussive activity of the compound in question if first assessed, by a 10 to 30 minute pretreatment period by intraperitoneal injection or a 1 hour pretreatment period for oral administration. The animals (guinea pigs) are then subjected to an inhaled citric acid-induced cough challenge. Inhalation of citric acid (CA; 0.4% for 1 minute) induced 11 to 15 coughs during the exposure and 12-minute monitoring period in conscious guinea pigs.

`COc1nccc(-c2c(-c3ccc(F)cc3)ncn2[C@H]2CC[C@H](O)CC2)n1` [Compound I, trans-1-(4-Hydroxycyclohexyl)-4-(4-fluorophenyl)-5-[(2-methoxy)pyrimidin-4-yl]imidazole]: in assay [1], the LTD4-induced eosinophilia result is “blocked” and the cough response entry was “normalized”. For the same compound, the airway eosinophilia entry in assay [2] (bronchoalveolar lavage) is “reduce airway eosinophilia”. Further, the “hypertussive state (citric acid-induced cough incidence)” value in assay [2] (citric acid challenge 72 hours post antigen) was “normalizes the hypertussive state”. For the same compound, the direct antitussive effect result in assay [3] is listed as “no direct antitussive effect”.

These data come from US20040097473A1, “Use of p38 inhibitors for the treatment of smoke inhalation” (priority 2003, published 2004).
